Data taken from US6084097A, “Methods for preparing 1-[4-arylpiperazin-1-yl]-3-[2-oxopyrrolidin/piperidin-1-yl] propanes” (Council of Scientific & Industrial Research, priority 1997, dated 2000).

Assays:
[1] = test system: anaesthetized cat; assay: Effect on blood pressure, heart rate and adrenaline vasopressure response at anaesthetized cat; format: in vivo
Description: Effect on blood pressure, heart rate and adrenaline
(§1) (a) Cats (2.6-4.0 kg) of either sex anaesthetized with pentobarbitone sodium (40 mg/kg i.v.) and showing basal mean arterial blood pressure below 150 mm (Hg) were categorised as normotensive and above 150 mm Hg as hypertensive. Arterial blood pressure (EP) was recorded from one of the carotid artery through a stathum P23 DC pressure transducer and 7P1 low level DC preamplifier on a Grass Model P7 Polygraph, Signals from 7P1 preamplifier were used to trigger 7P4 Tachograph preamplifier for recording the heart rate (HR). Right femoral vein and Trachea were cannulated for intravenous injections and artificial ventilation respectively. Control responses to intravenous injection of noradrenaline (2-4 ug); acetyl choline (1-2 ug); histamine (1-2 ug) and isoprenaline (1-2 ug) were taken before and after the administration of test doses of each compounds.

[2] = test system: Naturally occurring hypertensive cat; assay: Effect on blood pressure, heart rate and adrenaline vasopressor response, naturally occurring hypertensive cat; format: in vivo; conditions: n = 4
Description: (§2) 2. Effect on blood pressure, heart rate and adrenaline vasopressor response of anaesthetized (pentobarbitone sodium 40 & 60 mg/kg i.p. in cat and rat respectively) normotensive & hypertensive rat & cat model preparations.
as §1

[3] = test system: Normotensive cat; assay: Effect on blood pressure, heart rate and adrenaline vasopressor response, normotensive cat; format: in vivo; conditions: n = 4
Description: as §2, §1

[4] = test system: Hypertensive rat model preparation; assay: Effect on blood pressure, heart rate and adrenaline vasopressor response, hypertensive rat model preparation; format: in vivo
Description: as §2

[5] = test system: Normotensive rat model preparation; assay: Effect on blood pressure, heart rate and adrenaline vasopressor response, normotensive rat model preparation; format: in vivo; conditions: n = 2
Description: as §2

[6] = Site of action: ICV; format: in vivo; conditions: dose 0.34-1.36
[7] = test system: Isolated aortic strip; assay: Isolated aortic strip, endothelin induced contraction
[8] = test system: Isolated Guinea pig ileum; assay: Isolated Guinea pig ileum preparation; conditions: in vitro
[9] = test system: perfused rat heart; assay: Langendorffs perfused rat heart preparation, chronotropic effect
[10] = test system: Rat aortic ring; assay: Rat aortic ring preparation, NE induced contraction; conditions: in vitro
[11] = test system: cat; assay: Drug antagonism studies at 2 uMol dose i.v. in cat; format: in vivo; conditions: 2 uMol i.v.
Excerpt: (B) In viva Drug antagonism studies at 2 uMol dose i.v. in cat: […]

[12] = test system: Langendorff perfused rat heart; assay: Cardioprotective activity, Langendorff perfused rat heart, prolong period of ischemic insult
Description: Further, in Langendorff perfused rat heart preparation subjected to even up to 90 mm. global ischemia, the compound at 0.001 ug/ml conc.
The rats were killed by decaptitation, heart were rapidly excised and placed in ice-cold HEPES tyrode buffer. Then isolated hearts were perfused retrogradely through coronary arteries using the Langendorff technique. The perfusion buffer consisted (in mM) NaCl 137, KCl 5.4, CaCl2 1.8, MgCl2 1.0, glucose 11.2 and HEPES 3.0. The buffer (pH 7.4) was continuously gassed with oxygen and maintained at 37° C. Coronary flow rate was maintained at 10 ml/min. The heart contracted spontaneously.
The perfused heart was allowed to equillibrate for 30 min. before initiation of any insult protocol. The test compounds were given at the time of reperfusion. Some of the compounds were dissolved in ethanol. Final concentration of ethanol in the perfusion buffer was 0.0001% and had no effect of its own on the parameter used.
(b) For prolong period of ischemic insult (Becker, L. C. & Ambrosio, G. Myocardial consenquences of reperfusion. Prog. Cardiovas. Dis., 30, 23-44, 1987). Ischemia was initiated by stopping the flow for 30 min. followed by 30 min. reperfusion.

[13] = Felis catus, iv, 2.0 umol/kg i.v.
[14] = Felis catus, iv, 10.0 umol/kg i.v.
[15] = Felis catus, iv, 10.0 umol/kg i.v., read-out: B.P. fall %
[16] = 0.001 ug/ml at the time of reperfusion, up to 90 mm. global ischemia

## O=C1CCCCN1CCCN1CCN(c2cccc(Cl)c2)CC1 [C6 H4-3-Cl, n=2, 1-[4-(3-chlorophenyl)piperazin-1-yl]-3-[2-oxopiperidin-1-yl]propane]
[1]; [13]
  inhibition in vivo at 2 µmol/kg: 33%
[1]; [14]
  inhibition in vivo at 10 µmol/kg: 10%

## O=C1CCCN1CCCN1CCN(c2cccc(F)c2)CC1 [C6 H4-3-F, n=1, 1-[4-(3-fluorophenyl)piperazin-1-yl)-3-[2-oxopyrrolidin-1-yl]propane]
[1]; 10.0 umol/kg i.v.
  Adrenaline vasopressure response (R/Pt): R
[1]; [13]
  inhibition in vivo at 2 µmol/kg: 80%

## O=C1CCCCN1CCCN1CCN(c2ccc(Cl)cc2)CC1 [C6 H4-4-Cl, n=2, 1-[4-(4-chlorophenyl)piperazin-1-yl]-3-[2-oxopiperidin-1-yl]propane]
[1]; [13]
  inhibition in vivo at 2 µmol/kg: 20%
[1]; [14]
  inhibition in vivo at 10 µmol/kg: 25%

## O=C1CCCCN1CCCN1CCN(c2cccc(C(F)(F)F)c2)CC1 [C6 H4-3-CF3, n=2, 1-[4-(3-trifluoromethylphenyl)piperazin-1-yl]-3-[2-oxopiperidin-1-yl]propane]
[1]; 2.0 umol/kg i.v.
  Adrenaline vasopressure response (R/Pt): Pt (potentiation (was within 20%))
[1]; 10.0 umol/kg i.v.
  Dur.: Tr
[1]; [14]
  inhibition in vivo at 10 µmol/kg: 25%

## O=C1CCCN1CCCN1CCN(c2cccc(Cl)c2)CC1 [C6 H4-3-Cl, n=1, 1-[4-(3-chlorophenyl)piperazin-1-yl]-3-[2-oxopyrrolidin-1-yl]propane]
[1]; 2.0 umol/kg i.v.
  Adrenaline vasopressure response (R/Pt): Pt-

## O=C1CCCCN1CCCN1CCN(c2ccc(F)cc2)CC1 [C6 H4-4-F, n=2, 1-[4-(4-fluorophenyl)piperazin-1-yl]-3-[2-oxopiperidin-1-yl]propane]
[1]; 10.0 umol/kg i.v.
  Adrenaline vasopressure response (R/Pt): R
[1]; [13]
  inhibition in vivo at 2 µmol/kg: 46%

## O=C1CCCCN1CCCN1CCN(c2ccccn2)CC1 [2-Pyridyl, n=2, 1-[4-(2-pyridyl)piperazin-1-yl]-3-[2-oxopiperidin-1-yl]propane]
[1]; 10.0 umol/kg i.v.
  Adrenaline vasopressure response (R/Pt): Pt (potentiation (was within 20%))
[1]; [13]
  inhibition in vivo at 2 µmol/kg: 28%

## COc1ccccc1N1CCN(CCCN2CCCC2=O)CC1 [C6 H4-2-OCH3, n=1]
[1]; 2.0 umol/kg i.v.
  B.P. fall %: 19%
[1]; 10.0 umol/kg i.v.
  Adrenaline vasopressure response (R/Pt): R
[1]; [15]
  Blood pressure fall % at 10 µmol/kg: 23%

## O=C1CCCN1CCCN1CCN(c2ccccn2)CC1 [2-Pyridyl, n=1]
[1]; 10.0 umol/kg i.v.
  Adrenaline vasopressure response (R/Pt): Pt (potentiation (was within 20%))
[1]; Felis catus, iv, 2.0 umol/kg i.v., read-out: B.P. fall %
  Blood pressure fall % at 2 µmol/kg: 22%
[1]; [15]
  Blood pressure fall % at 10 µmol/kg: 40%

## CCc1ccccc1N1CCN(CCCN2CCCC2=O)CC1 [C6 H4-2-C2 H5, n=1, 1-[4-(2-ethylphenyl)piperazin-1-Yl]-3-[2-oxopyrrolidin-1-yl]propane]
[1]; 2.0 umol/kg i.v.
  Adrenaline vasopressure response (R/Pt): Pt (potentiation (was within 20%))

## O=C1CCCN1CCCN1CCN(c2ccc(F)cc2)CC1 [C6 H4-4-F, n=1, 1-[4-(4-fluorophenyl)piperazin-1-yl]-3-[2-oxopyrrolidin-1-yl]propane]
[2]; 10 uMol/kg i.d.
  Adrenaline vasopressure response % inhibition: 49%
  B.P. Fall duration: 110 min
[2]; 20 uMol/kg i.d.
  Adrenaline vasopressure response, R (Reversal): 26%
  B.P. Fall duration: > 156.75 min
[3]; 10 uMol/kg i.d.
  Adrenaline vasopressure response % inhibition: 26%
  B.P. Fall duration: 85 min
[3]; 20 uMol/kg i.d.
  B.P. Fall duration: > 102.5 min
[4]; 5 uMol/kg i.d., n = 3
  Adrenaline vasopressure response % inhibition: 33%
  B.P. Fall duration: 51 min
[4]; 10 uMol/kg i.d., n = 5
  Adrenaline vasopressure response % inhibition: 23%
  B.P. Fall duration: 76 min
[4]; 20 uMol/kg i.d., n = 1
  Adrenaline vasopressure response % inhibition: 54%
  B.P. Fall duration: 100 min
[5]; 2 uMol/kg i.v.
  Adrenaline vasopressure response % inhibition: +7%
[5]; 10 uMol/kg i.v.
  Adrenaline vasopressure response % inhibition: +14%
[5]; 20 uMol/kg i.v.
  Adrenaline vasopressure response % inhibition: -9.5%
[6]
  B.P. fall Dur.: 10 to 15 min
[7]; after washing the preparation
  Endothelin response after washing the preparation: relaxation rather than contraction
[7]; in vitro
  Endothelin induced contraction: inhibited significantly
[8]
  Endothelin response: relaxation rather than contraction
[9]; 1 ug
  Negative chronotropic effect, duration: 10 min
[9]; 3 ug (higher doses 3-5 ug)
  Negative chronotropic effect, duration: 14 min
[9]; 5 ug (higher doses 3-5 ug)
  Negative chronotropic effect, duration: 5 min
[9]; Rattus norvegicus, 1 ug, read-out: Negative chronotropic effect
  inhibition at 0.001 mg: 30%
[9]; Rattus norvegicus, 3 ug (higher doses 3-5 ug), read-out: Negative chronotropic effect
  inhibition at 0.003 mg: 26%
[9]; Rattus norvegicus, 5 ug (higher doses 3-5 ug), read-out: Negative chronotropic effect
  inhibition at 0.005 mg: 5%
[10]
  NE induced contraction: inhibited
[11]; Dup-753 (angiotension II-receptor antagonist) pretreatment
  Reduction of antihypertensive effect by pretreatment: 33%
[11]; atropine sulphate pretreatment
  Antihypertensive effect after pretreatment: failed to alter
[11]; captopril (ACE inhibitor) pretreatment
  Reduction of antihypertensive effect by pretreatment: 33%
[11]; glibenclamide (KATP blocker) pretreatment
  Fall in blood pressure after pretreatment: only partially reduced
[11]; mepyramine maleate pretreatment
  Antihypertensive effect after pretreatment: failed to alter
[11]; prazosin (alpha1-adrenergic receptor blocker) pretreatment, significantly
  Reduction of antihypertensive effect by pretreatment: 90%
[11]; propranolol pretreatment
  Antihypertensive effect after pretreatment: failed to alter
[11]; verapamil (Ca++ channel blocker) pretreatment, significantly
  Reduction of antihypertensive effect by pretreatment: 50%
[11]; yohimbine pretreatment
  Antihypertensive effect after pretreatment: failed to alter
[12]; [16]
  Incidence of reperfusion induced arrhythmia: abolished
  Revival of normal rhythmic contraction, start: ≤ 2 mm.
[12]; compared with antihypertensive dose
  Cardioprotective effect against myocardial stunning, dose: much smaller dose than antihypertensive dose
[1]; 10.0 umol/kg i.v.
  Adrenaline vasopressure response (R/Pt): R
[1]; [13]
  inhibition in vivo at 2 µmol/kg: 9%
